# Assay results published in patent EP4740948A1 (Dong Wha Pharm. Co., Ltd., priority 2023, dated 2025).
# Experiments:
# MKN-45 cells = assay: Cancer cell proliferation inhibition (Cell Counting Kit-8), gastric cancer cell line; format: cell-based; details: 1000 nM, cultured seven to 11 days; for inhibition at 1 µM: Homo sapiens, MKN-45, 264 h, read-out: % inhibition rate MKN -45; for % inhibition rate MKN -45: 1 µM
# Summary of the method: (§1)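 Cells grown in RPMI1640, McCoy's 5a, L-15 or DMEM with 10% FBS, seeded at 100 to 1,000 cells/well and treated with test substance at 1000 nM for 7 to 11 days. Viability read by CCK-8; % inhibition = {1−(test/control)} × 100.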
# EZH2 = EZH2 (Homo sapiens, UniProt Q15910); assay: AlphaLISA enzyme activity inhibition, EZH2; format: biochemical
# EZH2, sequence (Q15910 whole entry, species assumed): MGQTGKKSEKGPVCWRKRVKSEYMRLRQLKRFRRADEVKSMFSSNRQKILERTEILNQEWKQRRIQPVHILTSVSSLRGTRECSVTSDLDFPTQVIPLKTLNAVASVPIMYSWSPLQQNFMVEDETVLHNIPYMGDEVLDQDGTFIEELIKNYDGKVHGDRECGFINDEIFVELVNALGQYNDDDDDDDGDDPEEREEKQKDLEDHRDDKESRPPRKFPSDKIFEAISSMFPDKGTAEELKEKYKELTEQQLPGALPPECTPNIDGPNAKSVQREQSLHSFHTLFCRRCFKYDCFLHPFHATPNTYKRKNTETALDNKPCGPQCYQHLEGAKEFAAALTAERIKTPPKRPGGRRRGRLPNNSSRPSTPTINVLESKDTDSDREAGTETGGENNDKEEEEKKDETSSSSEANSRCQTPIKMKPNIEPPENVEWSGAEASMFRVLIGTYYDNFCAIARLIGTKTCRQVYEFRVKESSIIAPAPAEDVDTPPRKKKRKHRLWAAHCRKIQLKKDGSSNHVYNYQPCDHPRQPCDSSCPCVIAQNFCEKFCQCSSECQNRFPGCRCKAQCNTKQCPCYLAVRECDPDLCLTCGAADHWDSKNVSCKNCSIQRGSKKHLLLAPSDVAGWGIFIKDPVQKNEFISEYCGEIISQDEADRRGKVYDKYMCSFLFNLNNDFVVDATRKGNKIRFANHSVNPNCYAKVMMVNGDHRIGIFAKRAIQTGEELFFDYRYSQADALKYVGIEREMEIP
# EZH2, sequence (O75530 whole entry partner, species assumed): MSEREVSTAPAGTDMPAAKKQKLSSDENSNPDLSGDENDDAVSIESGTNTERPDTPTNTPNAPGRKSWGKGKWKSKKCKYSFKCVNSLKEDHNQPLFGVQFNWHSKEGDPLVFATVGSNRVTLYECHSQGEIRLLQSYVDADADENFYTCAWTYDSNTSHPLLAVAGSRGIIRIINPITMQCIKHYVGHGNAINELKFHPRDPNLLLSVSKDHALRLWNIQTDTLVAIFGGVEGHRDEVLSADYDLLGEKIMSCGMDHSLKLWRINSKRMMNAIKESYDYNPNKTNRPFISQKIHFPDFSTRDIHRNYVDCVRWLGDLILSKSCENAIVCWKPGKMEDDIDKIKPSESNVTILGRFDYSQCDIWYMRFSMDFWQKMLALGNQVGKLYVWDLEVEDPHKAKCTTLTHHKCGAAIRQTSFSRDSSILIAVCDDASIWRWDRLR
# EZH2, sequence (Q15022 whole entry partner, species assumed): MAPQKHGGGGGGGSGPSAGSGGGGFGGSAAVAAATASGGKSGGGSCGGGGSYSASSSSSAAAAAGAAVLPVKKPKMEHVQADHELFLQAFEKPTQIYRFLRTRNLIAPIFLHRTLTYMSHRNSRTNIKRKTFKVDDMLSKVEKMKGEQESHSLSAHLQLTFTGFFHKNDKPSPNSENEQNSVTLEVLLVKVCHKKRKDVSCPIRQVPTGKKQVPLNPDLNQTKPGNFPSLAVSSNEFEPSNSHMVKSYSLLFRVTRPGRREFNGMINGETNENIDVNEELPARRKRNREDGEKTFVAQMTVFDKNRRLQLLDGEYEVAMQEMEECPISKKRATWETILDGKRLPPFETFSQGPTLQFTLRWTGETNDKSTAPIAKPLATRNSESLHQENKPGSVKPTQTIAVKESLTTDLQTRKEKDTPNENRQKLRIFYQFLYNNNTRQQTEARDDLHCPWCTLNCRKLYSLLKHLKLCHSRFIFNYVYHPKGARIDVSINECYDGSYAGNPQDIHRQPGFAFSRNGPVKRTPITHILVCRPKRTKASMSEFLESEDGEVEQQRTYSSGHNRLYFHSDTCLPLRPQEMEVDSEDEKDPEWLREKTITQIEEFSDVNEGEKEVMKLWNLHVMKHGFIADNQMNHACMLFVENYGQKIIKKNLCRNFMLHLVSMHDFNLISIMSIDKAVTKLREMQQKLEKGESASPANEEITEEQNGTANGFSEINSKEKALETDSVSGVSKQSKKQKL
# Summary of the method: (§2)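 EZH1 or EZH2 was mixed with compound at 5 nM or 10 nM final in 20 mM Tris pH 8.0, 0.1% BSA, 0.5 mM DTT, then histone H3 peptide and SAM were added. After 2 h reaction, AlphaLISA acceptor and donor beads detected methylation; inhibition rate was calculated against DMSO control.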
# EZH1 = EZH1 (Homo sapiens, UniProt Q92800); assay: AlphaLISA enzyme activity inhibition, EZH1; format: biochemical
# EZH1, sequence (Q92800 whole entry, species assumed): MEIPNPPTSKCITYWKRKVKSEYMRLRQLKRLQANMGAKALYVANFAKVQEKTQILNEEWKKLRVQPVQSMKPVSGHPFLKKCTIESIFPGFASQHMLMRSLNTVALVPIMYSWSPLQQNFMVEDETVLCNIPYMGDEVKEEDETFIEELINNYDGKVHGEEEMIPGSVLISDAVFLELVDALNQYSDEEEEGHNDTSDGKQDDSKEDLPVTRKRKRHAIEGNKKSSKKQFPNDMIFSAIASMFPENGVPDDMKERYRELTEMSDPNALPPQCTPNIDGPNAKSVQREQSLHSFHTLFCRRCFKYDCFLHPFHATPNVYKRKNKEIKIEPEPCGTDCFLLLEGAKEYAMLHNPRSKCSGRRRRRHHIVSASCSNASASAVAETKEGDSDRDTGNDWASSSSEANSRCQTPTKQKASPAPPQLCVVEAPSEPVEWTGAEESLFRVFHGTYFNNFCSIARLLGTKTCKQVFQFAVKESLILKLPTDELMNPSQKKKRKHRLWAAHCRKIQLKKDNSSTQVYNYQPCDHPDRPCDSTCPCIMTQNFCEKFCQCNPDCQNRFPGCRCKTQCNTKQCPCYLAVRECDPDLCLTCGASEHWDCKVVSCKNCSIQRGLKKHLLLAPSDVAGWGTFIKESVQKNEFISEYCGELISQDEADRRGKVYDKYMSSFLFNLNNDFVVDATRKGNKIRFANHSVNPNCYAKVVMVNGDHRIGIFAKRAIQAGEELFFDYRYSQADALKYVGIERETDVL
# EZH1, sequence (O75530 whole entry partner, species assumed): as the sequence (O75530 whole entry partner, species assumed) above
# EZH1, sequence (Q15022 whole entry partner, species assumed): as the sequence (Q15022 whole entry partner, species assumed) above
# Summary of the method: as §2
# MIA-PaCa-2 cells = assay: Cancer cell proliferation inhibition (Cell Counting Kit-8), pancreatic cancer cell line; format: cell-based; details: 1000 nM, cultured seven to 11 days; for inhibition at 1 µM: Homo sapiens, MIA PaCa-2, 264 h, read-out: % inhibition rate MIA-Paca2
# Summary of the method: (§3)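 One dose only (1000 nM), 7–11 d exposure, 10% FBS in line-appropriate medium; CCK-8 endpoint, inhibition expressed relative to control.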
# NCI-H1299 cells = assay: Cancer cell proliferation inhibition (Cell Counting Kit-8), lung cancer cell line; format: cell-based; details: 1000 nM, cultured seven to 11 days; for inhibition at 1 µM: Homo sapiens, NCI-H1299, 264 h, read-out: % inhibition rate NCI-H129 9
# Summary of the method: as §3
# SW-13 cells = assay: Cancer cell proliferation inhibition (Cell Counting Kit-8), adrenal cancer cell line; format: cell-based; details: 1000 nM, cultured seven to 11 days; for inhibition at 1 µM: Homo sapiens, SW13, 264 h, read-out: % inhibition rate SW-13; for % inhibition rate SW-13: 1 µM
# Summary of the method: as §3
# G401 cells = assay: Cancer cell proliferation inhibition (Cell Counting Kit-8), rhabdoid tumor cell line; format: cell-based; details: 1000 nM, cultured seven to 11 days; for inhibition at 1 µM: Homo sapiens, G-401, 264 h, read-out: % inhibition rate G401; for % inhibition rate G401: 1 µM
# Summary of the method: as §1
# Lovo cells = assay: Cancer cell proliferation inhibition (Cell Counting Kit-8), colorectal cancer cell line; format: cell-based; details: 1000 nM, cultured seven to 11 days; for inhibition at 1 µM: Homo sapiens, LoVo, 264 h, read-out: % inhibition rate LoVo
# Summary of the method: as §3
SMILES,inhibition at 1 µM (MKN-45 cells) [%],inhibition at 0.005 µM (EZH2; 5nM test substance) [%],inhibition at 0.005 µM (EZH1; 5nM test substance) [%],inhibition at 1 µM (MIA-PaCa-2 cells) [%],inhibition at 1 µM (NCI-H1299 cells) [%],inhibition at 1 µM (SW-13 cells) [%],inhibition at 1 µM (G401 cells) [%],inhibition at 1 µM (Lovo cells) [%],inhibition at 0.01 µM (EZH2; 10nM test substance) [%],inhibition at 0.01 µM (EZH1; 10nM test substance) [%],other results
"CSc1cc(C)[nH]c(=O)c1CNC(=O)c1cc(-c2ccc(N3CCSCC3)nc2)c2c(c1C)OC(C)(C1CCN(CC(F)(F)F)CC1)O2 (centres unmarked) [Compound 34, 2,4-dimethyl-N-((6-methyl-4-(methylthio)-2-oxo-1,2-dihydropyridin-3-yl)methyl)-7-(6-thiomorpholinopyridin-3-yl)-2-(1-(2,2,2-trifluoroethyl)piperidin-4-yl)benzo[d][1,3]dioxole-5-carboxamide]",≤ 30,41.1,24.9,≤ 30,≤ 30,≤ 30,30 to 70,≥ 70,–,–,–
"CCN(C)c1ccc(-c2cc(C(=O)NCc3c(SC)cc(C)[nH]c3=O)c(C)c3c2OC(C)(C2CCN(CC(F)(F)F)CC2)O3)cn1 (single isomer, unassigned) [Compound 86, 7-(6-(ethyl(methyl)amino)pyridin-3-yl)-2,4-dimethyl-N-((6-methyl-4-(methylthio)-2-oxo-1,2-dihydropyridin-3-yl)methyl)-2-(1-(2,2,2-trifluoroethyl)piperidin-4-yl)benzo[d][1,3]dioxole-5-carboxamide]",–,–,–,–,–,–,–,–,–,–,"% inhibition rate MKN -45 (MKN-45 cells): ++ (++: more than 30% and less than 70%); Enzyme inhibition % EZH2 (EZH2; 5nM test substance, 0.005 µM): 98.3%; Enzyme inhibition % EZH2 (EZH2; 10nM test substance, 0.01 µM): 99.2%; Enzyme inhibition % EZH1 (EZH1; 5nM test substance, 0.005 µM): 42.0%; Enzyme inhibition % EZH1 (EZH1; 10nM test substance, 0.01 µM): 65.9%; % inhibition rate MIA-Paca2 (MIA-PaCa-2 cells): + (+: ≤30%); % inhibition rate NCI-H129 9 (NCI-H1299 cells; 1 µM): + (+: ≤30%); % inhibition rate SW-13 (SW-13 cells): + (+: ≤30%); % inhibition rate G401 (G401 cells): +++ (+++: ≥70%); % inhibition rate LoVo (Lovo cells): +++ (+++: ≥70%)"
"CSc1cc(C)[nH]c(=O)c1CNC(=O)c1cc(-c2cnc(N3CCCC3)nc2)c2c(c1C)OC(C)([C@H]1CC[C@H](N(C)C)CC1)O2 (relative stereo) [Compound 5, 2-(trans-4-(dimethylamino)cyclohexyl)-2,4-dimethyl-N-((6-methyl-4-(methylthio)-2-oxo-1,2-dihydropyridin-3-yl)methyl)-7-(2-(pyrrolidin-1-yl)pyrimidin-5-yl)benzo[d][1,3]dioxole-5-carboxamide]",≤ 30,99.5,95.1,≤ 30,≤ 30,30 to 70,30 to 70,30 to 70,–,–,–
"CSc1cc(C)[nH]c(=O)c1CNC(=O)c1cc(-c2ccc(N3C[C@@H](C)O[C@@H](C)C3)nc2)c2c(c1C)OC(C)(C1CCN(CC(F)F)CC1)O2 (stereo partly drawn) [Compound 46, 2-(1-(2,2-difluoroethyl)piperidin-4-yl)-7-(6-((2S,6R)-2,6-dimethylmorpholino)pyridin-3-yl)-2,4-dimethyl-N-((6-methyl-4-(methylthio)-2-oxo-1,2-dihydropyridin-3-yl)methyl)benzo[d][1,3]dioxole-5-carboxamide]",30 to 70,59.2,44.7,≤ 30,30 to 70,30 to 70,≥ 70,≥ 70,84,63,–
"CSc1cc(C)[nH]c(=O)c1CNC(=O)c1cc(-c2ccc(N3C[C@@H](C)O[C@@H](C)C3)nc2)c2c(c1C)OC(C)([C@H]1CC[C@H](N(C)CC(F)(F)F)CC1)O2 (single isomer, unassigned) [Compound 107]",≤ 30,–,39.3,≤ 30,≤ 30,≤ 30,–,≥ 70,–,–,"Enzyme inhibition % EZH2 (EZH2; 5nM test substance, 0.005 µM): 41.7%; % inhibition rate G401 (G401 cells): +++ (+++: ≥70%)"
"CCN1CCC(C2(C)Oc3c(-c4cnc(N5CCOCC5)nc4)cc(C(=O)NCc4c(SC)cc(C)[nH]c4=O)c(C)c3O2)CC1 (single isomer, unassigned) [Compound 73, 2-(1-ethylpiperidin-4-yl)-2,4-dimethyl-N-((6-methyl-4-(methylthio)-2-oxo-1,2-dihydropyridin-3-yl)methyl)-7-(2-morpholinopyrimidin-5-yl)benzo[d][1,3]dioxole-5-carboxamide]",30 to 70,99.2,75.7,≤ 30,≤ 30,30 to 70,–,30 to 70,99.5,88,% inhibition rate G401 (G401 cells): +++ (+++: ≥70%)
"CSc1cc(C)[nH]c(=O)c1CNC(=O)c1cc(-c2ccc(N3C[C@@H](C)O[C@@H](C)C3)nc2)c2c(c1C)OC(C)(C1CCN(C[C@H](C)O)CC1)O2 (stereo partly drawn) [Compound 40, 7-(6-((2S,6R)-2,6-dimethylmorpholino)pyridin-3-yl)-2-(1-((S)-2-hydroxypropyl)piperidin-4-yl)-2,4-dimethyl-N-((6-methyl-4-(methylthio)-2-oxo-1,2-dihydropyridin-3-yl)methyl)benzo[d][1,3]dioxole-5-carboxamide]",≤ 30,94.6,73.8,≤ 30,30 to 70,30 to 70,≥ 70,30 to 70,–,–,–
"CSc1cc(C)[nH]c(=O)c1CNC(=O)c1cc(-c2ccc(N3C[C@@H](C)O[C@@H](C)C3)nc2)c2c(c1C)OC(C)([C@H]1CC[C@H](N3CC(OCC(F)F)C3)CC1)O2 (stereo partly drawn) [Compound 103, 2-(trans-4-(3-(2,2-difluoroethoxy)azetidin-1-yl)cyclohexyl)-7-(6-((2S,6R)-2,6-dimethylmorpholino)pyridin-3-yl)-2,4-dimethyl-N-((6-methyl-4-(methylthio)-2-oxo-1,2-dihydropyridin-3-yl)methyl)benzo[d][1,3]dioxole-5-carboxamide]",–,27.1,10.7,–,≤ 30,–,≥ 70,≥ 70,72.5,20.5,% inhibition rate MKN -45 (MKN-45 cells): +++ (+++: ≥70%); % inhibition rate MIA-Paca2 (MIA-PaCa-2 cells; 1 µM): +++ (+++: ≥70%); % inhibition rate SW-13 (SW-13 cells): +++ (+++: ≥70%)
"CSc1cc(C)[nH]c(=O)c1CNC(=O)c1cc(-c2ccsc2)c2c(c1C)OC(C)(C1CCC(N(C)C)CC1)O2 (centres unmarked) [Compound 42, 2-(4-(dimethylamino)cyclohexyl)-2,4-dimethyl-N-((6-methyl-4-(methylthio)-2-oxo-1,2-dihydropyridin-3-yl)methyl)-7-(thiophen-3-yl)benzo[d][1,3]dioxole-5-carboxamide]",30 to 70,90.5,59.6,≤ 30,30 to 70,30 to 70,≥ 70,≥ 70,–,–,–
"CSc1cc(C)[nH]c(=O)c1CNC(=O)c1cc(-c2ccc(N3C[C@@H](C)O[C@@H](C)C3)nc2)c2c(c1C)OC(C)([C@H]1CC[C@H](N3CC(O)C3)CC1)O2 (stereo partly drawn) [Compound 101, 7-(6-((2S,6R)-2,6-dimethylmorpholino)pyridin-3-yl)-2-(trans-4-(3-hydroxyazetidin-1-yl)cyclohexyl)-2,4-dimethyl-N-((6-methyl-4-(methylthio)-2-oxo-1,2-dihydropyridin-3-yl)methyl)benzo[d][1,3]dioxole-5-carboxamide]",≤ 30,98.7,38.8,≤ 30,≤ 30,30 to 70,≥ 70,30 to 70,100,78.1,–
"CSc1cc(C)[nH]c(=O)c1CNC(=O)c1cc(-c2cnc(N(C)C)nc2)c2c(c1C)OC(C)([C@H]1CC[C@H](N(C)CC(F)(F)F)CC1)O2 (relative stereo) [Compound 22, 7-(2-(dimethylamino)pyrimidin-5-yl)-2,4-dimethyl-2-(trans-4-(methyl(2,2,2-trifluoroethyl)amino)cyclohexyl)-N-((6-methyl-4-(methylthio)-2-oxo-1,2-dihydropyridin-3-yl)methyl)benzo[d][1,3]dioxole-5-carboxamide]",30 to 70,81,53.1,≤ 30,≤ 30,≤ 30,30 to 70,≥ 70,–,–,–
